Data: the NIST ThermoML archive (doi:10.1016/j.jct.2013.10.031)
± gives the expanded uncertainty stated by the source.

Test: wn = mass fraction of the nth substance listed
Conditions: Gas, Burnett expansion method

FCC(F)(F)F [1,1,1,2-tetrafluoroethane] + CCC
Conditions | mass density [kg/m3]
291.04 K, 382.5 kPa, w2 = 0.6 | 9.6512 ± 0.55
291.04 K, 497.9 kPa, w2 = 0.6 | 12.8332 ± 0.57
291.04 K, 818.1 kPa, w2 = 0.6 | 22.6914 ± 0.67
291.06 K, 178.7 kPa, w2 = 0.65 | 4.1993 ± 0.49
291.06 K, 235.4 kPa, w2 = 0.65 | 5.5839 ± 0.5
291.06 K, 309.1 kPa, w2 = 0.65 | 7.425 ± 0.51
291.06 K, 404.2 kPa, w2 = 0.65 | 9.8733 ± 0.53
291.06 K, 525 kPa, w2 = 0.65 | 13.1287 ± 0.57
291.06 K, 642.6 kPa, w2 = 0.6 | 17.0639 ± 0.63
291.08 K, 675.9 kPa, w2 = 0.65 | 17.4564 ± 0.6
291.99 K, 927 kPa, w2 = 0.5 | 28.4165 ± 0.77
292 K, 732.8 kPa, w2 = 0.5 | 21.3324 ± 0.72
292.01 K, 193.1 kPa, w2 = 0.5 | 5.0866 ± 0.55
292.01 K, 254.3 kPa, w2 = 0.5 | 6.7756 ± 0.56
292.01 K, 334.3 kPa, w2 = 0.5 | 9.02529 ± 0.58
292.01 K, 437.9 kPa, w2 = 0.5 | 12.0223 ± 0.6
292.01 K, 569.6 kPa, w2 = 0.5 | 16.0141 ± 0.64
292.03 K, 202.8 kPa, w2 = 0.4 | 5.83306 ± 0.61
292.03 K, 587.9 kPa, w2 = 0.4 | 18.3639 ± 0.73
292.03 K, 753.1 kPa, w2 = 0.4 | 24.4617 ± 0.81
292.03 K, 950.3 kPa, w2 = 0.4 | 32.5844 ± 0.86
292.04 K, 266.5 kPa, w2 = 0.4 | 7.76977 ± 0.62
292.04 K, 348.8 kPa, w2 = 0.4 | 10.3497 ± 0.65
292.04 K, 454.4 kPa, w2 = 0.4 | 13.7862 ± 0.68
292.1 K, 669.6 kPa, w2 = 0.45 | 20.2125 ± 0.72
292.1 K, 852.9 kPa, w2 = 0.45 | 26.9241 ± 0.77
292.11 K, 399.4 kPa, w2 = 0.45 | 11.3911 ± 0.63
292.11 K, 519.4 kPa, w2 = 0.45 | 15.1737 ± 0.67
292.12 K, 176.3 kPa, w2 = 0.45 | 4.81956 ± 0.57
292.12 K, 232.3 kPa, w2 = 0.45 | 6.41979 ± 0.58
292.12 K, 305.2 kPa, w2 = 0.45 | 8.55159 ± 0.6
295.06 K, 496 kPa, w2 = 0.6 | 12.529 ± 0.56
295.06 K, 537 kPa, w2 = 0.55 | 14.2738 ± 0.6
295.06 K, 692.2 kPa, w2 = 0.55 | 18.98 ± 0.66
295.06 K, 881.4 kPa, w2 = 0.55 | 25.2378 ± 0.7
295.07 K, 315.8 kPa, w2 = 0.55 | 8.0723 ± 0.54
295.07 K, 641.4 kPa, w2 = 0.6 | 16.6596 ± 0.61
295.07 K, 820 kPa, w2 = 0.6 | 22.1527 ± 0.65
295.08 K, 167 kPa, w2 = 0.6 | 4.0072 ± 0.49
295.08 K, 220.6 kPa, w2 = 0.6 | 5.3286 ± 0.5
295.08 K, 240.3 kPa, w2 = 0.55 | 6.0706 ± 0.53
295.08 K, 380.5 kPa, w2 = 0.6 | 9.4217 ± 0.53
295.08 K, 413.2 kPa, w2 = 0.55 | 10.7336 ± 0.57
295.08 K, 929.7 kPa, w2 = 0.65 | 25.1362 ± 0.67
295.09 K, 290.3 kPa, w2 = 0.6 | 7.0853 ± 0.51
295.09 K, 571.2 kPa, w2 = 0.65 | 14.2158 ± 0.57
295.09 K, 733.9 kPa, w2 = 0.65 | 18.9032 ± 0.63
295.1 K, 440.4 kPa, w2 = 0.65 | 10.6904 ± 0.54
295.11 K, 337.1 kPa, w2 = 0.65 | 8.0394 ± 0.51
295.12 K, 195 kPa, w2 = 0.65 | 4.5466 ± 0.49
295.12 K, 256.9 kPa, w2 = 0.65 | 6.0457 ± 0.49
296.03 K, 914.3 kPa, w2 = 0.45 | 28.6491 ± 0.77
296.04 K, 429.5 kPa, w2 = 0.45 | 12.1212 ± 0.62
296.04 K, 558.2 kPa, w2 = 0.45 | 16.146 ± 0.66
296.04 K, 718.9 kPa, w2 = 0.45 | 21.5073 ± 0.73
296.05 K, 189.8 kPa, w2 = 0.45 | 5.12847 ± 0.56
296.05 K, 250.1 kPa, w2 = 0.45 | 6.83136 ± 0.58
296.05 K, 328.4 kPa, w2 = 0.45 | 9.09958 ± 0.59
296.06 K, 874.4 kPa, w2 = 0.5 | 25.9625 ± 0.72
296.07 K, 179.9 kPa, w2 = 0.5 | 4.64758 ± 0.54
296.07 K, 236.8 kPa, w2 = 0.5 | 6.1908 ± 0.55
296.07 K, 407 kPa, w2 = 0.5 | 10.9846 ± 0.58
296.07 K, 529.9 kPa, w2 = 0.5 | 14.6321 ± 0.62
296.07 K, 684.5 kPa, w2 = 0.5 | 19.4905 ± 0.68
296.15 K, 854.3 kPa, w2 = 0.4 | 27.6875 ± 0.83
296.15 K, 1071.2 kPa, w2 = 0.4 | 36.8808 ± 0.9
296.16 K, 518.5 kPa, w2 = 0.4 | 15.6041 ± 0.68
296.16 K, 669.4 kPa, w2 = 0.4 | 20.7854 ± 0.74
296.17 K, 231.5 kPa, w2 = 0.4 | 6.60203 ± 0.6
296.17 K, 304.4 kPa, w2 = 0.4 | 8.79413 ± 0.62
296.17 K, 398.4 kPa, w2 = 0.4 | 11.7141 ± 0.64
297.08 K, 311 kPa, w2 = 0.5 | 8.24631 ± 0.56
299.03 K, 1039.9 kPa, w2 = 0.55 | 30.269 ± 0.74
299.04 K, 190.4 kPa, w2 = 0.6 | 4.5212 ± 0.49
299.04 K, 220.4 kPa, w2 = 0.55 | 5.4755 ± 0.52
299.04 K, 251 kPa, w2 = 0.6 | 6.0118 ± 0.5
299.04 K, 290.2 kPa, w2 = 0.55 | 7.2808 ± 0.53
299.04 K, 330.1 kPa, w2 = 0.6 | 7.994 ± 0.51
299.04 K, 380.6 kPa, w2 = 0.55 | 9.6815 ± 0.55
299.04 K, 432.1 kPa, w2 = 0.6 | 10.6297 ± 0.54
299.04 K, 496.4 kPa, w2 = 0.55 | 12.8736 ± 0.58
299.04 K, 561.9 kPa, w2 = 0.6 | 14.1346 ± 0.57
299.04 K, 724.4 kPa, w2 = 0.6 | 18.7949 ± 0.62
299.04 K, 824.2 kPa, w2 = 0.55 | 22.7626 ± 0.69
299.05 K, 180.8 kPa, w2 = 0.65 | 4.1345 ± 0.47
299.05 K, 238.4 kPa, w2 = 0.65 | 5.4977 ± 0.48
299.05 K, 313.5 kPa, w2 = 0.65 | 7.3105 ± 0.49
299.05 K, 410.5 kPa, w2 = 0.65 | 9.7208 ± 0.52
299.05 K, 534.3 kPa, w2 = 0.65 | 12.9262 ± 0.55
299.05 K, 642.9 kPa, w2 = 0.55 | 17.1183 ± 0.62
299.06 K, 689.6 kPa, w2 = 0.65 | 17.1876 ± 0.59
299.06 K, 880.4 kPa, w2 = 0.65 | 22.8543 ± 0.62
299.06 K, 922.6 kPa, w2 = 0.6 | 24.9906 ± 0.66
299.92 K, 198.1 kPa, w2 = 0.5 | 5.06523 ± 0.54
299.92 K, 261.1 kPa, w2 = 0.5 | 6.74709 ± 0.54
299.92 K, 343.5 kPa, w2 = 0.5 | 8.9873 ± 0.56
299.92 K, 449.9 kPa, w2 = 0.5 | 11.9714 ± 0.58
299.92 K, 585.2 kPa, w2 = 0.5 | 15.9465 ± 0.62
299.92 K, 754.7 kPa, w2 = 0.5 | 21.2412 ± 0.68
299.93 K, 961.3 kPa, w2 = 0.5 | 28.294 ± 0.76
300.04 K, 162.1 kPa, w2 = 0.4 | 4.47962 ± 0.58
300.04 K, 213.8 kPa, w2 = 0.4 | 5.96699 ± 0.58
300.04 K, 369.1 kPa, w2 = 0.4 | 10.5874 ± 0.62
300.04 K, 481.6 kPa, w2 = 0.4 | 14.1031 ± 0.65
300.04 K, 624.3 kPa, w2 = 0.4 | 18.786 ± 0.7
300.04 K, 801.2 kPa, w2 = 0.4 | 25.0237 ± 0.77
300.04 K, 1014.7 kPa, w2 = 0.4 | 33.3323 ± 0.82
300.05 K, 281.4 kPa, w2 = 0.4 | 7.94819 ± 0.6
300.28 K, 1155.2 kPa, w2 = 0.45 | 37.6831 ± 0.87
300.3 K, 250.1 kPa, w2 = 0.45 | 6.74559 ± 0.58
300.3 K, 328.7 kPa, w2 = 0.45 | 8.98533 ± 0.58
300.3 K, 430.2 kPa, w2 = 0.45 | 11.9689 ± 0.61
300.3 K, 560 kPa, w2 = 0.45 | 15.9432 ± 0.65
300.3 K, 722.6 kPa, w2 = 0.45 | 21.2369 ± 0.7
300.3 K, 921.7 kPa, w2 = 0.45 | 28.2885 ± 0.8
303 K, 206 kPa, w2 = 0.65 | 4.6675 ± 0.47
303 K, 271.6 kPa, w2 = 0.65 | 6.2064 ± 0.48
303 K, 356.7 kPa, w2 = 0.65 | 8.2528 ± 0.49
303 K, 466.3 kPa, w2 = 0.65 | 10.974 ± 0.52
303 K, 605.7 kPa, w2 = 0.65 | 14.5921 ± 0.55
303.01 K, 228 kPa, w2 = 0.55 | 5.5856 ± 0.51
303.01 K, 513.7 kPa, w2 = 0.55 | 13.1325 ± 0.56
303.01 K, 665.4 kPa, w2 = 0.55 | 17.4628 ± 0.61
303.01 K, 780 kPa, w2 = 0.65 | 19.4028 ± 0.6
303.01 K, 853.2 kPa, w2 = 0.55 | 23.2201 ± 0.68
303.02 K, 300.2 kPa, w2 = 0.55 | 7.4272 ± 0.52
303.02 K, 393.7 kPa, w2 = 0.55 | 9.876 ± 0.54
303.02 K, 1078.8 kPa, w2 = 0.55 | 30.8763 ± 0.69
303.03 K, 991 kPa, w2 = 0.65 | 25.7988 ± 0.64
303.1 K, 231.6 kPa, w2 = 0.6 | 5.4683 ± 0.49
303.1 K, 304.9 kPa, w2 = 0.6 | 7.2713 ± 0.5
303.1 K, 399.8 kPa, w2 = 0.6 | 9.6687 ± 0.52
303.1 K, 521.7 kPa, w2 = 0.6 | 12.8566 ± 0.55
303.1 K, 675.5 kPa, w2 = 0.6 | 17.0956 ± 0.59
303.1 K, 865.6 kPa, w2 = 0.6 | 22.7325 ± 0.66
303.11 K, 1092.1 kPa, w2 = 0.6 | 30.2268 ± 0.71
304.1 K, 860.4 kPa, w2 = 0.4 | 26.6525 ± 0.78
304.1 K, 1087.7 kPa, w2 = 0.4 | 35.5024 ± 0.83
304.11 K, 174.8 kPa, w2 = 0.4 | 4.77108 ± 0.57
304.11 K, 397.4 kPa, w2 = 0.4 | 11.2764 ± 0.62
304.11 K, 518.4 kPa, w2 = 0.4 | 15.0206 ± 0.65
304.11 K, 671.1 kPa, w2 = 0.4 | 20.0084 ± 0.7
304.12 K, 230.5 kPa, w2 = 0.4 | 6.35521 ± 0.58
304.12 K, 303.2 kPa, w2 = 0.4 | 8.46542 ± 0.59
304.18 K, 860.4 kPa, w2 = 0.5 | 24.4745 ± 0.71
304.19 K, 302.4 kPa, w2 = 0.5 | 7.77376 ± 0.55
304.19 K, 396.5 kPa, w2 = 0.5 | 10.3551 ± 0.57
304.19 K, 517.4 kPa, w2 = 0.5 | 13.7935 ± 0.6
304.19 K, 670.5 kPa, w2 = 0.5 | 18.3734 ± 0.64
304.19 K, 1088.7 kPa, w2 = 0.5 | 32.6005 ± 0.78
304.23 K, 1142.8 kPa, w2 = 0.45 | 36.7316 ± 0.82
304.24 K, 907.2 kPa, w2 = 0.45 | 27.5748 ± 0.78
304.25 K, 248 kPa, w2 = 0.45 | 6.57513 ± 0.57
